“And” between values parts separate entries of the source, which are not always exact repeats. Equal values may be shown once. Where a name gives a salt, the structure may show the parent alone.
Legend:
CYP2B6 mRNA = CYP2B6 mRNA expression in HepG2 cells (RT-PCR, agarose gel); format: cell-based, human; conditions: HepG2, 10 μM, positive control, p < 0.001 vs cell control
CYP2B6 = molecular target: T1, CYP2B6 (Homo sapiens, UniProt P20813); test: Michaelis-Menten kinetics of efavirenz metabolism in HLM
T1 sequence (P20813 1-491): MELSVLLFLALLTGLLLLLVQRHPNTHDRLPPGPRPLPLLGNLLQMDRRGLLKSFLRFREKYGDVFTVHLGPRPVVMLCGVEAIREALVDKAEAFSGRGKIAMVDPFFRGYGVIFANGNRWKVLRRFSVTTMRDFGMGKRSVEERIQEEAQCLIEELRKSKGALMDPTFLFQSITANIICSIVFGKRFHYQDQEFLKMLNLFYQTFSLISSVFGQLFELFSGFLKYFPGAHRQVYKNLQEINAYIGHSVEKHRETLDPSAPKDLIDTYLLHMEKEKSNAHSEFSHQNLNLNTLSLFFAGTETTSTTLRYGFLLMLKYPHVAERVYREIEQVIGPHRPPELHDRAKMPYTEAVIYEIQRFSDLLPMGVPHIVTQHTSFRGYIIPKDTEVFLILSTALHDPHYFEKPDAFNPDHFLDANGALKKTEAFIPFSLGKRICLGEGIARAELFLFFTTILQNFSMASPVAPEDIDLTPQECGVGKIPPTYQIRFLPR

CYP1A2 = tested on: CYP1A2; design: method as in Pan et al., 2014; conditions: ref Pan et al., 2014; cited from earlier work
[1] = tested on: HIV-1 Reverse Transcriptase (RT)-associated RNase H; design: method as in Sonar et al., 2017; conditions: in vitro, ref Sonar et al., 2017, cited from earlier work
β-esterases = test: Michaelis-Menten kinetics of rifampicin metabolism in HLM; format: in vitro ADME, human; conditions: pooled HLM
CYP3A enzymes = tested on: CYP3A enzymes; design: method as in Quintieri et al., 2008; conditions: ref Quintieri et al., 2008; cited from earlier work
[2] = molecular target: T2, rifampicin metabolism (β-esterases) (Homo sapiens, UniProt P22760); test: HLM inhibition assay, rifampicin metabolism to 25-O-desacetyl rifampicin, two-point screening and IC50; format: in vitro ADME; conditions: liver microsomes, pH 7.4, two-point screening, 49.79 μg/ml, read-out: rifampicin metabolism activity reduced by
T2 sequence (P22760 1-399): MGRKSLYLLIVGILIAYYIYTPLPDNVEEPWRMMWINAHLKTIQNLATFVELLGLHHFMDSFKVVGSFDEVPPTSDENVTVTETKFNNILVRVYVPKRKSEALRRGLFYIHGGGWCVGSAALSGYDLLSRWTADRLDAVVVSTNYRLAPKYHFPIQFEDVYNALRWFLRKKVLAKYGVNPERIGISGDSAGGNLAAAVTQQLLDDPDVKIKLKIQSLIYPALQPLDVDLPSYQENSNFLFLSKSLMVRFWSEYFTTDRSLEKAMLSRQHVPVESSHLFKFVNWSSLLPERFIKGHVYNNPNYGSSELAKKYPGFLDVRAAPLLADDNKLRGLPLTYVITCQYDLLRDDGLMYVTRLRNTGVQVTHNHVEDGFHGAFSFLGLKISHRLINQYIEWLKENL
Experimental: The inhibitory potential of each extract was assessed using two-point screening (20 and 200 μg/ml) and the activity potential was compared with the control incubates (without inhibitor). Neostigmine was used as the internal standard.
Briefly, a standard 200 μl incubation mixture containing the liver microsomes (0.5 mg/ml protein concentration for efavirenz, 0.25 mg/ml protein concentration rifampicin), efavirenz (15 μM)/rifampicin (48 μM) in 0.2M phosphate buffer (pH 7.4) and the basil herb extract (final concentration […] or 200 μg/ml, dissolved in <1% solvent) was incubated at 37°C for 30 min, in triplicates, with master reaction mix comprising of NADPH (final concentration 1.3 mM) and other reaction co-factors such as glucose-6-phosphate (final concentration 1.3 mM), glucose-6-phosphate dehydrogenase (1 U/ml) and magnesium chloride (final concentration 3.3 mM). About 200 μl of chilled ice-cold acetonitrile spiked with neostigmine (20 μM) was used to terminate each reaction. These samples were then centrifuged at 13,000 rpm for 10 min and the supernatants were subjected to HPLC analysis. The mobile phase comprised of water (A): acetonitrile (B) at a flow rate of 0.7 ml min^-1 for efavirenz samples and water (A): methanol (B) at a flow rate of 0.8 ml min^-1 for rifampicin samples. […] The percentage of remaining activity was expressed as in the equation below (equation 2.8.3.1): […]

[3] = molecular target: T2, rifampicin metabolism (β-esterases); test: Time-dependent inhibition (TDI) IC50 shift assay in HLM, rifampicin metabolism; format: in vitro ADME; conditions: human liver microsomes, probe rifampicin
Experimental: The TDI fold-shift was calculated using the ratio of the IC50s of the normal assay IC50(-) to that of the pre-incubation assay IC50(+), with NADPH (equation 2.8.3.2).
Eq. (2.8.3.2) TDIfold-shift=normal assayIC50(−)/pre-incubation assayIC50(+)
Extracts with fold shifts ≥1.5 were classified positive for TDI ([Nomeir et al., 2004]).

[4] = tested on: UDP glucuronosyltransferases; design: method as in Zhang et al., 2005; conditions: different assay conditions, bilirubin as the substrate; ref Zhang et al., 2005; read-out: IC50 reported in a previous HLM study; cited from earlier work

For `C[C@@H]1C[C@H]2[C@@H]3CCC4=CC(=O)C=C[C@]4(C)[C@@]3(F)[C@@H](O)C[C@]2(C)[C@@]1(O)C(=O)CO` [Dexamethasone, dexamethasone], the “fold induction of CYP2B6 mRNA expression” value (CYP2B6 mRNA) was “significant fold induction”.

For `O=C1Nc2ccc(Cl)cc2[C@@](C#CC2CC2)(C(F)(F)F)O1` [EFV, efavirenz], the Km (CYP2B6; human, pooled human liver microsomes) was 15.1 µM, the “CLint (Vmax/Km)” value (CYP2B6; pooled HLM) was 0.0240 μl/min/mg protein and the Vmax (CYP2B6; pooled HLM, formation of 8-hydroxy efavirenz) was 0.3576 pmol/min/mg protein.

In the case of `COc1ccc(-c2cc(=O)c3c(O)c(OC)c(OC)cc3o2)cc1O` [Eupatorin, Eupatorin (3′,5-Dihydroxy-4′,6,7-trimethoxyflavone)], the “inhibition of CYP1A2” value (CYP1A2) is given as “inhibits”.

For `CCCCCCCC/C=C\CCCCCCCCNC(=O)/C=C/c1ccc(O)c(O)c1` [N-oleylcaffeamide], the “inhibition of RT-associated activity of ribonuclease H and DNA polymerase” value [1] is given as “strongly inhibited”.

In the case of `CO[C@H]1/C=C/O[C@@]2(C)Oc3c(C)c(O)c4c(O)c(c(/C=N/N5CCN(C)CC5)c(O)c4c3C2=O)NC(=O)/C(C)=C\C=C\[C@H](C)[C@H](O)[C@@H](C)[C@@H](O)[C@@H](C)[C@H](OC(C)=O)[C@@H]1C` [RIF, rifampicin], the “CLint (Vmax/Km)” value (β-esterases) is reported as 0.0260 μl/min/mg protein, the Vmax (β-esterases; formation of 25-O-desacetyl rifampicin) is reported as 1.2330 pmol/min/mg protein and the Km (β-esterases; formation of 25-O-desacetyl rifampicin, 0–150 μM) is reported as 48.2 µM. It also gave a Vmax (β-esterases; formation of 25-O-desacetyl rifampicin, listed as RIFAMPICIN) of 1.233 pmol/min/mg protein.

In the case of `COc1ccc(-c2cc(=O)c3c(O)c(OC)c(OC)cc3o2)cc1` [Salvigenin, Salvigenin (5-Hydroxy-6,7,4′-trimethoxyflavone)], the “inhibition of CYP3A enzymes” value (CYP3A enzymes) is listed as “moderate inhibitor”.

In the case of `Cc1c(O)cccc1C(=O)N[C@@H](CSc1ccccc1)[C@H](O)CN1C[C@H]2CCCC[C@H]2C[C@H]1C(=O)NC(C)(C)C` [nelfinavir, nelfinavir mesylate hydrate], the inhibition at 0.5 h [2] is reported as 30%, the IC50 ([3]; HLM, 30 min pre-incubation with NADPH, rifampicin as substrate, read-out: TDI IC50 against rifampicin metabolism) is reported as 6.39 µM and 3.63 µg/mL and the IC50 shift ([3]; rifampicin pathway, fold shift ≥1.5 classified positive for TDI, read-out: IC50 shift-fold, co-incubation IC50(-) / pre-incubation IC50(+)) is reported as greater than 1.5. For the same molecule, the IC50 [4] was 2.7 µM.

For `CCCCCCCCCCCCCCOC(=O)/C=C/c1ccc(O)c(OC)c1` [tetradecyl ferulate], the IC50 ([1]; read-out: IC50, RNase H inhibition) is listed as 12.4 µM.

From publication PMC7204527, “In Vitro Assessment of the Interaction Potential of Ocimum basilicum (L.) Extracts on CYP2B6, 3A4, and Rifampicin Metabolism” (Frontiers in Pharmacology, 2020)
